Key:
Assay in all cases: greenhouse pre-emergence herbicidal test
Assay type in all cases: in vivo
Settings in all cases: scale 0 to 100
[1] = system: Amaranthus retroflexus
Description: (§1) The culture containers used were plastic flowerpots containing loamy sand with approximately 3.0% of humus as the substrate. The seeds of the test plants were sown separately for each species.
(§2) For the pre-emergence treatment, the active ingredients, which had been suspended or emulsified in water, were applied directly after sowing by means of finely distributing nozzles. The containers were irrigated gently to promote germination and growth and subsequently covered with transparent plastic hoods until the plants had rooted. This cover caused uniform germination of the test plants, unless this had been impaired by the active ingredients. For the post-emergence treatment, the test plants were first grown to a height of 3 to 15 cm, depending on the plant habit, and only then treated with the active ingredients which had been suspended or emulsified in water. For this purpose, the test plants were either sown directly and grown in the same containers, or they were first grown separately as seedlings and transplanted into the test containers a few days prior to treatment.
(§3) Depending on the species, the plants were kept at 10-25° C. or 20-35° C., respectively.
(§4) The test period extended over 2 to 4 weeks. During this time, the plants were tended, and their response to the individual treatments was evaluated.
(§5) Evaluation was carried out using a scale from 0 to 100. 100 means no emergence of the plants, or complete destruction of at least the aerial moieties, and 0 means no damage, or normal course of growth. A moderate herbicidal activity is given at values of at least 60, a good herbicidal activity is given at values of at least 70, and a very good herbicidal activity is given at values of at least 85.
(§6) The plants used in the greenhouse experiments were of the following species: […]

[2] = system: Setaria faberi
Description: as §1, §2, §3, §4, §5, §6

[3] = system: Echinochloa crus-galli
Description: as §1, §2, §3, §4, §5, §6

Structure (SMILES) | herbicidal activity ([1]; pre-emergence, 62,5 g/ha) | herbicidal activity ([2]; pre-emergence, 62,5 g/ha) | herbicidal activity ([3]; pre-emergence, 62,5 g/ha) | herbicidal activity ([1]; pre-emergence, 62 g/ha) | herbicidal activity ([2]; pre-emergence, 62 g/ha) | herbicidal activity ([3]; pre-emergence, 62 g/ha) | other results
CCOc1c(Br)cc(F)c(F)c1Nc1nc(N)nc(C2(F)CCCC2)n1 [Example 21] | 95% | 100% | 100% |  |  |  | 
CCC#CCOc1c(Br)cc(F)c(F)c1Nc1nc(N)nc(C2(F)CCCC2)n1 [Example 22] | 85% | 100% | 85% |  |  |  | 
CCOc1c(Cl)cc(F)c(F)c1Nc1nc(N)nc(C(C)(C)F)n1 [Example 23] | 100% | 100% | 100% |  |  |  | 
CCC#CCOc1c(Cl)cc(F)c(F)c1Nc1nc(N)nc(C(C)(C)F)n1 [Example 24] | 100% | 100% | 100% |  |  |  | 
COc1c(Br)ccc(F)c1Nc1nc(N)nc(C2(F)CCCC2)n1 [Example 25] |  |  |  |  |  |  | herbicidal activity ([1]; pre-emergence, 250 g/ha): 100%; herbicidal activity ([2]; pre-emergence, 250 g/ha): 100%; herbicidal activity ([3]; pre-emergence, 250 g/ha): 100%
COCOc1c(Br)ccc(F)c1Nc1nc(N)nc(C(C)(C)F)n1 [Example 26] |  |  |  |  |  |  | herbicidal activity ([1]; pre-emergence, 250 g/ha): 100%; herbicidal activity ([2]; pre-emergence, 250 g/ha): 100%; herbicidal activity ([3]; pre-emergence, 250 g/ha): 100%
C#CCOc1c(Br)cc(F)c(F)c1Nc1nc(N)nc(C2(F)CCCC2)n1 [Example 27] |  |  |  |  |  |  | herbicidal activity ([1]; pre-emergence, 31 g/ha): 100%; herbicidal activity ([2]; pre-emergence, 31 g/ha): 100%
C#CCOc1c(Cl)cc(F)c(F)c1Nc1nc(N)nc(C(C)(C)F)n1 [Example 28] | 100% | 100% | 100% |  |  |  | 
COc1c(Cl)cc(F)c(F)c1Nc1nc(N)nc(C(C)Cl)n1 (stereo not shown) [Example 38] | 100% | 100% | 100% |  |  |  | 
COc1c(Cl)cc(F)c(F)c1Nc1nc(N)nc(C(C)F)n1 (stereo not shown) [Example 39] | 100% | 100% | 100% |  |  |  | 
COc1c(Cl)cc(F)c(F)c1Nc1nc(N)nc(C(F)C2CC2)n1 (stereo not shown) [Example 40] | 100% | 100% | 100% |  |  |  | 
CCOc1c(Cl)ccc(F)c1Nc1nc(N)nc(C(C)(C)F)n1 [Example 41] | 100% | 100% | 100% |  |  |  | 
CC#CCOc1c(Cl)ccc(F)c1Nc1nc(N)nc(C(C)(C)F)n1 [Example 42] |  |  |  |  |  |  | herbicidal activity ([1]; pre-emergence, 31 g/ha): 100%; herbicidal activity ([2]; pre-emergence, 31 g/ha): 100%; herbicidal activity ([3]; pre-emergence, 31 g/ha): 100%
COc1c(Cl)ccc(F)c1Nc1nc(N)nc(C(C)F)n1 (stereo not shown) [Example 43] | 100% | 100% | 100% |  |  |  | 
COc1c(Br)ccc(F)c1Nc1nc(N)nc(C(C)F)n1 (stereo not shown) [Example 44] | 100% | 100% | 100% |  |  |  | 
CCOc1c(Br)ccc(F)c1Nc1nc(N)nc(C(C)(C)F)n1 [Example 45] | 100% | 100% | 100% |  |  |  | 
CC#CCOc1c(Br)ccc(F)c1Nc1nc(N)nc(C(C)(C)F)n1 [Example 46] | 100% | 100% | 100% |  |  |  | 
CC#CCOc1c(Br)cc(F)c(F)c1Nc1nc(N)nc(C(C)(F)F)n1 [Example 47] | 100% | 100% | 100% |  |  |  | 
COc1c(Cl)ccc(F)c1Nc1nc(N)nc(C(C)(F)F)n1 [Example 48] |  |  |  |  |  |  | herbicidal activity ([1]; pre-emergence, 31 g/ha): 100%; herbicidal activity ([2]; pre-emergence, 31 g/ha): 100%; herbicidal activity ([3]; pre-emergence, 31 g/ha): 70%
CCC(C)(F)c1nc(N)nc(Nc2c(F)c(Cl)cc(Cl)c2OC)n1 (stereo not shown) [Example 62] |  |  |  |  |  |  | herbicidal activity ([1]; pre-emergence, 31 g/ha): 100%; herbicidal activity ([2]; pre-emergence, 31 g/ha): 100%; herbicidal activity ([3]; pre-emergence, 31 g/ha): 100%

Structure (SMILES) | herbicidal activity ([1]; pre-emergence, 62,5 g/ha) | herbicidal activity ([2]; pre-emergence, 62,5 g/ha) | herbicidal activity ([3]; pre-emergence, 62,5 g/ha) | herbicidal activity ([1]; pre-emergence, 62 g/ha) | herbicidal activity ([2]; pre-emergence, 62 g/ha) | herbicidal activity ([3]; pre-emergence, 62 g/ha) | other results
CCOc1c(Br)cc(Br)c(F)c1Nc1nc(N)nc(C(C)(C)F)n1 [Example 66] |  |  |  | 100% | 100% | 100% | 
C#CCOc1c(C)cc(Br)c(F)c1Nc1nc(N)nc(C(C)(C)F)n1 [Example 67] |  |  |  | 100% | 100% | 100% | 
CC#CCOc1c(C)cc(Br)c(F)c1Nc1nc(N)nc(C(C)(C)F)n1 [Example 68] |  |  |  | 100% | 100% | 100% | 
COc1c(C)ccc(F)c1Nc1nc(N)nc(C(C)(C)F)n1 [Example 69] |  |  |  | 100% | 100% | 100% | 
CC#CCOc1c(C)ccc(F)c1Nc1nc(N)nc(C(C)(C)F)n1 [Example 70] |  |  |  | 100% | 100% | 100% | 
C#CCOc1c(C)ccc(F)c1Nc1nc(N)nc(C(C)(C)F)n1 [Example 71] |  |  |  | 100% | 100% | 100% | 
COc1c(Cl)cc(Cl)c(F)c1Nc1nc(N)nc(C2(F)CC2)n1 [Example 72] |  |  |  | 100% | 100% | 100% | 
COc1c(Br)cc(C)c(F)c1Nc1nc(N)nc(C(C)(C)F)n1 [Example 73] |  |  |  | 100% | 100% | 100% | 
C#CCOc1c(Br)cc(C)c(F)c1Nc1nc(N)nc(C(C)(C)F)n1 [Example 74] |  |  |  | 100% | 100% | 100% | 
CC#CCOc1c(Br)cc(C)c(F)c1Nc1nc(N)nc(C(C)(C)F)n1 [Example 75] |  |  |  | 100% | 100% | 100% | 
COc1c(Br)cc(Cl)c(F)c1Nc1nc(N)nc(C(C)(C)F)n1 [Example 76] |  |  |  | 100% | 100% | 100% | 
C#CCOc1c(Br)cc(Cl)c(F)c1Nc1nc(N)nc(C(C)(C)F)n1 [Example 77] |  |  |  | 100% | 100% | 100% | 
CC#CCOc1c(Br)cc(Cl)c(F)c1Nc1nc(N)nc(C(C)(C)F)n1 [Example 78] |  |  |  | 100% | 100% | 100% | 
CC(C)(F)c1nc(N)nc(Nc2c(F)c(F)cc(Cl)c2OC(F)F)n1 [Example 80] |  |  |  | 100% | 100% | 100% | 
CC#CCOc1c(Cl)cc(F)c(F)c1Nc1nc(N)nc(C(C)(C)OC)n1 [Example 82] |  |  |  | 100% | 100% | 100% | 
CCOc1c(Cl)cc(Cl)c(F)c1Nc1nc(N)nc(C(C)(C)F)n1 [Example 83] |  |  |  | 100% | 100% | 100% | 
C#CCOc1c(Cl)cc(F)c(F)c1Nc1nc(N)nc(C(C)(F)CCl)n1 (stereo not shown) [Example 86] |  |  |  | 100% | 100% | 100% | 
C#CCOc1c(Br)cc(F)c(F)c1Nc1nc(N)nc(C(C)(C)OC)n1 [Example 87] |  |  |  | 100% | 100% | 100% | 
CC#CC(C)Oc1c(Br)cc(F)c(F)c1Nc1nc(N)nc(C2(F)CCCC2)n1 (stereo not shown) [Example 96] |  |  |  |  | 75% | 70% | 
